Laboratory results reported in patent US20130029970A1 (priority 2009, published 2013).
pEC50, pIC50: −log10 of the molar value. Read-outs that look alike come from different tables or passages of the source.

What was measured:
human CB2 (hCB2) = target: T1, human CB2 (hCB2) (Homo sapiens, UniProt P34972); assay: 35S GTPγS binding assay, hCB2 agonist; type: biochemical
T1 construct: (cDNA clone) CNR0200000
Method: (§1) cDNA expression clones for human CB1 (hCB1, Genbank Accession No. AY225225) and human CB2 (hCB2, Genbank Accession No. AY242132) expressed in vector pcDNA3.1+ were purchased from UMR cDNA Resource Center, Rolla, Mo. (Clone ID CNR01L000 for hCB1; CNR0200000 for hCB2).
(§2) Membranes were isolated from transfected cells as follows. Monolayers of cultured cells were washed twice with phosphate-buffered saline (PBS). […] Homogenates were centrifuged 10 minutes at 1000×g at 4° C. The supernatant was collected and was centrifuged for 1 hour at 40,000×g. The supernatant was then decanted and the resulting pellet was re-suspended in 20 mM HEPES, pH 7.4, 5 mM MgCl2, 1 mM EDTA, 10% sucrose with complete cocktail protease inhibitors. Protein concentration of membrane suspensions were measured by Bradford Protein Assay using bovine serum albumin as the standard (BioRad catalog #500-0006). Protein concentrations of membrane suspensions were adjusted with the final buffer in the range of 5 to 10 mg/mL and were stored at −80° C. until further use.
(§3) Functional assays which monitor G-protein coupled receptor or downstream cellular responses can be used to characterize potential CB1 receptor and/or CB2 receptor agonist or antagonist activities. Direct activation (or inhibition of activation) can be monitored using a GTPγS assay (membrane-based assay) or cAMP assay (whole cell-based assay).
(§4) ^35S GTPγS binding assays were performed by incubating recombinant cell membranes prepared above (5 μg) in the presence of scintillation proximity assay beads (SPA beads, Catalog #RPNQ0252 GE Healthcare, Buckinghamshire, England) in GTPγS binding buffer [50 mM HEPES (pH 7.4), 100 mM NaCl, 5 mM MgCl2, 0.001% saponin (Sigma catalog #S4521)] supplemented with 20 uM GDP (Sigma catalog #G7127) in the presence or absence of test compound. The reaction was carried out in 96-well microplates with 0.1 nM [^35S]GTPγS (specific activity=1250 Ci/mmol; Perkin Elmer catalog #NEG030X250UC) in a final volume of 100 uL. After a 90 min room temperature incubation, the reaction was analyzed using a scintillation counter (Perkin Elmer Microbeta instrument). Binding data were analyzed using GraphPad Prism.

human CB1 receptors = target: T2, human CB1 receptors (Homo sapiens, UniProt P21554); assay: cAMP assay in HEK-293 cells, hCB1 agonist; type: cell-based; conditions: inhibition of forskolin-stimulated cAMP, HEK-293 cells
T2 construct: (cDNA clone) CNR01L000
Text: (§5) Stable, HEK-293-derived cell lines that recombinantly express hCBI or hCB2 were established. In brief, the clone hCB1 (CNR IL) or hCB2 (CNR2) was transfected into human embryonic kidney cells (HEK-293) using Lipofectamine 2000 (Gibco, Cat#11668-019) according to the manufacturer's protocol. Transfected clones were isolated by single colony purification and clones were screened for receptor expression using a whole cell, ^3H—CP 55,940 radioligand binding assay. HEK-293 stable cells were maintained in Dulbecco's modified Eagles medium (DMEM) containing 10% fetal bovine serum, 2 mM L-glutamine and 0.5 mg/mL G-418.
as §3
(§6) cAMP assays were performed in HEK-293 cells stably expressing human CB1 or CB2 receptors. For cannabinoid receptor functional assays measuring agonist effects on cellular cAMP levels, monolayers of cultured cells were harvested with enzyme-free PBS-based cell dissociation buffer (Gibco, Cat#13151-04). Cells suspensions were centrifuged and the cells were washed once with PBS, were centrifuged again, and the cells were re-suspended in HBSS (Hank's Balanced Salt Solution, Cellgro, Cat #21-022-CV) solution containing 10 mM HEPES and 0.1% fatty acid free BSA (Sigma, Cat #A0281). Cell suspensions were prepared at 1,500,000 cells per ml. Stock solutions of test substances (10 mM) in DMSO were diluted to 1 mM using 30% DMSO as diluent. Test substances of solutions (1 mM) were further diluted down to 3× of final assay concentrations in the above HBSS buffer containing 0.1% BSA in the presence of 90 uM forskolin (Sigma Cat#F6886). To perform the assay, 20 uL of cell suspension (1,500,000 cells/mL) were added to each well in 96 well plate and treated with 10 uL test substance solution diluted as described above. Cells and compounds were incubated at 37° C. for 30 minutes. Cells were lysed and cAMP concentration was measured using DiscoveRx −XS+ cAMP assay kit (DiscoveRx Corporation Ltd., Fremont, Calif., USA, Cat #90-0075-03), following the manufacturer's protocol. GraphPad Prism software was used to calculate EC50 values using sigmoidal dose response curve fitting. The maximal amount of cAMP produced by forskolin was defined as 100%. CB1 or CB2 agonists reduced forskolin-stimulated cAMP signaling. The EC50 value of an agonist compound was defined as the concentration at which 50% of the forskolin-stimulated cAMP synthesis was inhibited.

[1] = target: T3, recombinant human cannabinoid receptor CB2 (Homo sapiens, UniProt P34972); assay: Cannabinoid receptor radioligand binding assay, [3H]-CP 55,940 displacement, hCB2
T3 construct: (cDNA clone) CNR0200000
Method: as §2
A rapid filtration technique using Millipore FB filter plates (Catalog #MADVNOB) and filtration apparatus (Millipore system Catalog MAVM0960R) with vacuum aspiration was used to harvest and rinse labeled membranes (8 times with 0.2 mL of chilled binding buffer). […] Binding data were analyzed using GraphPad Prism (GraphPad Software, Inc. San Diego, Calif.).

[2] = target: T4, recombinant human cannabinoid receptor CB1 (Homo sapiens, UniProt P21554); assay: Cannabinoid receptor radioligand binding assay, [3H]-CP 55,940 displacement, hCB1
T4 construct: (cDNA clone) CNR01L000
Text: as §5
(§7) Membranes were isolated from transfected cells as follows. Monolayers of cultured cells were washed twice with phosphate-buffered saline (PBS). Cells were scraped into 20 mM HEPES, pH 7.4, 10 mM EDTA containing complete cocktail protease inhibitors (Roche, Catalog #11 697 498 001) and were homogenized by an electric-powered mechanical probe homogenizer (Omni GLH; probe G7-195S) for 40 seconds at 7000 rpm. Homogenates were centrifuged 10 minutes at 1000×g at 4° C. The supernatant was collected and was centrifuged for 1 hour at 40,000×g. The supernatant was then decanted and the resulting pellet was re-suspended in 20 mM HEPES, pH 7.4, 5 mM MgCl2, 1 mM EDTA, 10% sucrose with complete cocktail protease inhibitors. Protein concentration of membrane suspensions were measured by Bradford Protein Assay using bovine serum albumin as the standard (BioRad catalog #500-0006). Protein concentrations of membrane suspensions were adjusted with the final buffer in the range of 5 to 10 mg/mL and were stored at −80° C. until further use.
Radioligand binding assays were performed by incubating membranes (2-10 μg protein) prepared from HEK-293 cells expressing recombinant human cannabinoid receptors, CB1 or CB2, at room temperature with 0.5 nM cannabinoid receptor agonist, [^3H]-CP 55,940 (Perkin Elmer, catalog #NET1051) in 0.2 mL of binding buffer (50 mM Tris-HCl, pH 7.5, 5 mM MgCl2, 2.5 mM EDTA) and 0.1% fatty acid free bovine serum albumin (Sigma Cat. #A0821) for 90 minutes. A rapid filtration technique using Millipore FB filter plates (Catalog #MADVNOB) and filtration apparatus (Millipore system Catalog MAVM0960R) with vacuum aspiration was used to harvest and rinse labeled membranes (8 times with 0.2 mL of chilled binding buffer). The radioactivity bound to the filters was counted with 0.05 mL of liquid scintillant (UltraGold MV, PerkinElmer catalog #6013159) in a scintillation counter (Perkin Elmer Microbeta instrument). Nonspecific binding was determined in the presence of unlabeled 1 μM CP 55,940 (Sigma Aldrich, catalog #C1112). Binding data were analyzed using GraphPad Prism (GraphPad Software, Inc. San Diego, Calif.).

human CB2 receptors = target: T5, human CB2 receptors (Homo sapiens, UniProt P34972); assay: cAMP assay in HEK-293 cells, hCB2 agonist; type: cell-based
T5 construct: (cDNA clone) CNR0200000
Method: as §3
as §6, with “For cannabinoid receptor functional assays measuring agonist effects on cellular cAMP levels, monolayers of cultured cells were harvested with enzyme-free PBS-based cell dissociation buffer (Gibco, Cat#13151-04).” left out, “100%.” for “100%. CB1 or CB2 agonists reduced forskolin-stimulated cAMP signaling. The EC50 value of an agonist compound was defined as the concentration at which 50% of the forskolin-stimulated cAMP synthesis was inhibited.”

human CB1 (hCB1) = target: T6, human CB1 (hCB1) (Homo sapiens, UniProt P21554); assay: 35S GTPγS binding assay, hCB1 agonist; type: biochemical; conditions: GTPγS agonist, HEK-293 membranes; read-out: hCB1 EC50 (GTPyS ag)
T6 construct: (cDNA clone) CNR01L000
Text: as §1, §5, §7, §3, §4

T4 sequence (P21554 whole entry): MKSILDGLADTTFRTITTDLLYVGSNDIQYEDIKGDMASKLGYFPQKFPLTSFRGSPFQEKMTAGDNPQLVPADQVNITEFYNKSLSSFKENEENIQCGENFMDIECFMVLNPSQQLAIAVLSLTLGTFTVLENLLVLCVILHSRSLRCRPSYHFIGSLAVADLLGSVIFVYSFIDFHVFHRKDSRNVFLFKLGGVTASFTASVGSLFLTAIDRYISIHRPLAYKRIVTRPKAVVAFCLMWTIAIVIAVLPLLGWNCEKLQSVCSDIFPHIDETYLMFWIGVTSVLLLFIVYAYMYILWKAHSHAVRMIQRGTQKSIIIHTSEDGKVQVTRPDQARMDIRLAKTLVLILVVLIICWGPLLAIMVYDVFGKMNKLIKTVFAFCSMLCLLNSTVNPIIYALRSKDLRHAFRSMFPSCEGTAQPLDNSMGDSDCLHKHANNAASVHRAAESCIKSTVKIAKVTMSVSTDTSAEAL
T2 sequence (P21554 whole entry): as above
T5 sequence (P34972 whole entry): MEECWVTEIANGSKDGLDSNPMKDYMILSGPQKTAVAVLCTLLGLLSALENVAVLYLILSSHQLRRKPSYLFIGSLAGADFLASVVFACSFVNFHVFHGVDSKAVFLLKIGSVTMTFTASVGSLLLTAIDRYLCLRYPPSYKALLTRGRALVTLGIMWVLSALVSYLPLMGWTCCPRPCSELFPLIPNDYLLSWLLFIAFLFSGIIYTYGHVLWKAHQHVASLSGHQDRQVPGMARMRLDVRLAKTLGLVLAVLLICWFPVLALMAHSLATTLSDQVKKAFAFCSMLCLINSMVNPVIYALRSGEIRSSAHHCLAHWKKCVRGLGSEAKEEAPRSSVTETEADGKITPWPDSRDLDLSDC
T3 sequence (P34972 whole entry): as above
T1 sequence (P34972 whole entry): as above
T6 sequence (P21554 whole entry): as the sequence (P21554 whole entry) above

| Compound | pEC50 (human CB2 (hCB2)) | hCB1 EC50 (cAMP ag, nM) (human CB1 receptors) | pIC50 [1] | pIC50 [2] | hCB2 EC50 (cAMP ag, nM) (human CB2 receptors; inhibition of forskolin-stimulated cAMP, HEK-293 cells) | pIC50 ([1]; displacement of 0.5 nM [3H]-CP 55,940, read-out: hCB2 IC50 (CP displ)) | pIC50 ([2]; displacement of 0.5 nM [3H]-CP 55,940, read-out: hCB1 IC50 (CP displ)) | pEC50 (human CB2 receptors) | pEC50 (human CB2 (hCB2); GTPγS agonist, HEK-293 membranes, read-out: hCB2 EC50 (GTPyS ag)) | pEC50 (human CB1 (hCB1)) |
| --- | --- | --- | --- | --- | --- | --- | --- | --- | --- | --- |
| Cc1cc2cc(C(=O)c3cccc(Cl)c3Cl)sc2n1C [Compound 20, (2,3-Dichlorophenyl)(5,6-dimethyl-6H-thieno[2,3-b]pyrrol-2-yl)methanone] | 6.00 to 7.00 | NS (NS means “Not Significant,” which means less than 30% agonist activity when compared to the positive control.) | 5.00 to 6.00 | < 5.00 |  |  |  |  |  |  |
| COc1ccc(C(=O)c2cc3cc(C)n(CCn4ccnc4)c3s2)cc1 [Compound 67, (6-(2-(1H-Imidazol-1-yl)ethyl)-5-methyl-6H-thieno[2,3-b]pyrrol-2-yl)(4-methoxyphenyl)methanone] | 6.00 to 7.00 | NS (NS means “Not Significant,” which means less than 30% agonist activity when compared to the positive control.) | 5.00 to 6.00 | < 5.00 |  |  |  |  |  |  |
| COc1ccc(C(=O)c2cc3cc(C)n(CCCN(C)S(C)(=O)=O)c3s2)cc1 [Compound 69, N-(3-(2-(4-Methoxybenzoyl)-5-methyl-6H-thieno[2,3-b]pyrrol-6-yl)propyl)-N-methylmethanesulfonamide] | 6.00 to 7.00 | NS (NS means “Not Significant,” which means less than 30% agonist activity when compared to the positive control.) | 5.00 to 6.00 | < 5.00 |  |  |  |  |  |  |
| COc1ccc(C(=O)c2cc3cc(C)n(CCN4CCN(S(C)(=O)=O)CC4)c3s2)cn1 [Compound 143, (6-methoxypyridin-3-yl)(5-methyl-6-(2-(4-(methylsulfonyl)piperazin-1-yl)ethyl)-6H-thieno[2,3-b]pyrrol-2-yl)methanone] |  | NS (NS means “Not Significant,” which means less than 30% agonist activity when compared to the positive control.) |  |  | NS (NS means “Not Significant,” which means less than 30% agonist activity when compared to the positive control.) | < 5.00 | < 5.00 |  |  |  |
| COc1ccc(C(=O)c2cc3cc(C)n(CCN4CCCC4C(=O)O)c3s2)cn1 (stereo not drawn) [Compound 146, 1-(2-(2-(6-methoxynicotinoyl)-5-methyl-6H-thieno[2,3-b]pyrrol-6-yl)ethyl)pyrrolidine-2-carboxylic acid] |  | NS (NS means “Not Significant,” which means less than 30% agonist activity when compared to the positive control.) | 6.00 to 7.00 | < 5.00 |  |  |  | 6.00 to 7.00 |  |  |
| COc1ccc(C(=O)c2cc3cc(C)n(CCNCC4CCOCC4)c3s2)cn1 [Compound 149, (6-methoxypyridin-3-yl)(5-methyl-6-(2-((tetrahydro-2H-pyran-4-yl)methylamino)ethyl)-6H-thieno[2,3-b]pyrrol-2-yl)methanone] |  | NS (NS means “Not Significant,” which means less than 30% agonist activity when compared to the positive control.) | < 5.00 | < 5.00 |  |  |  | 6.00 to 7.00 |  |  |
| COc1ccc(C(=O)c2cc3cc(C)n(C(=S)SC)c3s2)cc1 [Compound 155, Methyl 2-(4-methoxybenzoyl)-5-methyl-6H-thieno[2,3-b]pyrrole-6-carbodithioate] |  | NS (NS means “Not Significant,” which means less than 30% agonist activity when compared to the positive control.) |  |  |  |  |  |  | 6.00 to 7.00 | < 5.00 |
| COc1ccc(C(=O)c2cc3cc(C)n(CCN4CCC(OC)CC4)c3s2)cn1 [Compound 156, (6-(2-(4-methoxypiperidin-1-yl)ethyl)-5-methyl-6H-thieno[2,3-b]pyrrol-2-yl)(6-methoxypyridin-3-yl)methanone] | < 5.00 | NS (NS means “Not Significant,” which means less than 30% agonist activity when compared to the positive control.) |  |  |  |  |  |  |  | < 5.00 |
